Measured values taken from patent EP3246029A1, “PHARMACEUTICAL COMBINATION OF NINTEDANIB AND CAPECITABINE FOR THE TREATMENT OF COLORECTAL CANCER” (BOEHRINGER INGELHEIM INTERNATIONAL GMBH, priority 2016, dated 2017).

Columns and labels:
[1] = tested on: HT-29 xenografts (human CRC tumor cell line); assay: in vivo tumor xenograft experiment, subcutaneous HT-29 xenografts (Example A); conditions: nude mice, suboptimal doses, 28 days of treatment
Experimental: In order to analyse the anti-tumor effects of combining the inhibition of tumor angiogenesis by interfering with the VEGFR, FGFR and PDGFR signalling cascades with the established anti-proliferative treatment modality of capecitabine (Xeloda®) in a xenograft model of CRC the following in vivo experiment is performed. Nude mice carrying established subcutaneous HT-29 xenografts (human CRC tumor cell line) are randomized and treated with either nintedanib or capecitabine alone or with the combination of both drugs. After 28 days of treatment the tumors on the control treated mice reach the endpoint and are in average […] in volume. […] TGI = (1−(Xtreated,final−Xtreated,day1)/(Xcontrol,final−Xcontrol,day1))*100% [formula] where X = mean tumor weigh, final is day 28
The weight gain of the mice in the treatment groups in comparison to the weight of the control mice is reduced, but nevertheless well tolerated.

[2] = in adults; cited from earlier work
Rip-Tag = assay: in vivo anti-tumor efficacy, Rip-Tag murine transgenic pancreas model
HT-29 = assay: in vivo anti-tumor efficacy, HT-29 xenograft model; conditions: Colorectal, HT-29, 100mg/kg/d
Caki-1 = assay: in vivo anti-tumor efficacy, Caki-1 xenograft model; conditions: Renal, Caki-1, 100mg/kg/d
PAC-120 = assay: in vivo anti-tumor efficacy, PAC-120 xenograft model; conditions: Prostate (hormone-dependent), PAC-120, 100mg/kg/d
NCI-H460 = assay: in vivo anti-tumor efficacy, NCI-H460 xenograft model; conditions: Lung (non-small-cell), NCI-H460, 25mg/kg/d
FaDu = assay: in vivo anti-tumor efficacy, FaDu xenograft model; conditions: Head and neck, 100mg/kg/d
Calu-6 = assay: in vivo anti-tumor efficacy, Calu-6 xenograft model; conditions: Lung (non-small-cell), Calu-6, 50mg/kg/d
SKOV3 = assay: in vivo anti-tumor efficacy, SKOV3 xenograft model; conditions: Ovarian, SKOV3, 50mg/kg/d
HT-29 large tumors = assay: in vivo anti-tumor efficacy, HT-29 large tumors xenograft model; conditions: Colorectal
GS-9L = assay: in vivo anti-tumor efficacy, GS-9L syngeneic rat tumor model; conditions: Glioblastoma, 50mg/kg/d

CCCCCOC(=O)Nc1nc(=O)n([C@@H]2O[C@H](C)[C@@H](O)[C@H]2O)cc1F [capecitabine, 5'-deoxy-5-fluoro-N-[(pentyloxy)carbonyl]-cytidine]
TGI value [1]: 50% | AUC [2]: 5960 ng·h/mL | Cmax [2]: 3900 ng/mL | bioavailability [2]: ≈ 100%

COC(=O)c1ccc2c(c1)NC(=O)/C2=C(\Nc1ccc(N(C)C(=O)CN2CCN(C)CC2)cc1)c1ccccc1 [nintedanib, 3-Z-[1-(4-(N-((4-methyl-piperazin-1-yl)-methylcarbonyl)-N-methyl-amino)-anilino)-1-phenyl-methylene]-6-methoxycarbonyl-2-indolinone]
Efficacy (Rip-Tag): interference with tumor formation | T/C (HT-29): T/C 16% @ 100mg/kg/d | T/C (Caki-1): T/C 13% @ 100mg/kg/d | TGI value [1]: 35% | T/C (PAC-120): T/C 34% @ 100mg/kg/d | T/C (NCI-H460): T/C 54% @ 25mg/kg/d | T/C (FaDu): T/C 11% @ 100mg/kg/d | T/C (Calu-6): T/C 24% @ 50mg/kg/d | T/C (SKOV3): T/C 19% @ 50mg/kg/d | Efficacy (HT-29 large tumors): tumor volume reduction | T/C (GS-9L): T/C 32% @ 50mg/kg/d
